From patent US20160122305A1, “Topical Compositions and Methods of Use Thereof” (Avon Products, Inc., priority 2014, published 2016)
Where two headings read alike, the source gives them in different places.

What was measured:
β2 adrenergic receptor = β2 adrenergic receptor (Homo sapiens, UniProt P07550); experiment: SelectScreen cell-based GPCR profiling, β2 agonist assay; details: 5 hours incubation, fluorescence read
Experimental: (§1) The Compounds of Formulas (III)-(V) were subjected to an in vitro screening against α1A, α2A, and β2 adrenergic receptors using SelectScreen® Cell-based GPCR Profiling Service from Life Technologies. In each of the three agonist assays (α1A, α2A, and β2), cells were thawed and resuspended in Assay Media (DMEM, 10% dialyzed FBS, 25 mM HEPES pH 7.3, 0.1 mM NEAA, 100 U/mL/100 μg/mL Pen/Strep) to a concentration of 312,500 cells/mL. 32 μL of cell suspension (10,000 cells) were added to each well of a 384-well TC-Treated assay plate. Cells in Assay Media were incubated for 16-24 hours in the plate at 37° C./5% CO2 in a humidified incubator. 4 μL of a 10× serial dilution of a control agonist (phenylephrine for α1A; UK 14304 for α2A; isoproterenol for β2) or a Compound III-V were added to appropriate wells of the plate. 4 μL of Assay Media was added to all wells to bring the final assay volume to 40 μL. The plate was incubated for 5 hours at 37° C./5% CO2 in a humidified incubator. 8 μL of 1 μM Substrate+Loading Solution was added to each well and the plate was incubated for 2 hours at room temperature. The plate was read on a fluorescence plate reader.

α2A adrenergic receptor = molecular target: T1, α2A adrenergic receptor (Homo sapiens, UniProt P08913); experiment: SelectScreen cell-based GPCR profiling, α2A agonist assay; details: 5 hours incubation, fluorescence read
T1 sequence (P08913 1-465): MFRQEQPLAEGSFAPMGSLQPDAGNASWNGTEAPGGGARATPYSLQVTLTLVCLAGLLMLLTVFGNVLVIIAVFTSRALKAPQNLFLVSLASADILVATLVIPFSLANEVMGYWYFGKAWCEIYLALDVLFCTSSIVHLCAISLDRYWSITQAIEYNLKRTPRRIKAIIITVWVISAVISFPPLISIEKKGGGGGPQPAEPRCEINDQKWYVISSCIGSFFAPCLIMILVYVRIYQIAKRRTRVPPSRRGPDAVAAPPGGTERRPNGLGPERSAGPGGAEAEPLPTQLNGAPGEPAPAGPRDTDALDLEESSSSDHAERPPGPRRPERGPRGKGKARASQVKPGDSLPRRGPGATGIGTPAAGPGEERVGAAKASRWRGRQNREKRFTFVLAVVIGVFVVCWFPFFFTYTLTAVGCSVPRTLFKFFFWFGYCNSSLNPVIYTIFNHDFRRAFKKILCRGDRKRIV
Experimental: as §1

α1A adrenergic receptor = molecular target: T2, α1A adrenergic receptor (Homo sapiens, UniProt P35348); experiment: SelectScreen cell-based GPCR profiling, α1A agonist assay; details: for selectivity of agonism (α1A and/or α2A EC50 less than 1,000 nM and insignificant activity at β2): classification in words from Table 1 EC50 values, insignificant β2 activity = EC50 greater than about 500 nM
T2 sequence (P35348 1-466): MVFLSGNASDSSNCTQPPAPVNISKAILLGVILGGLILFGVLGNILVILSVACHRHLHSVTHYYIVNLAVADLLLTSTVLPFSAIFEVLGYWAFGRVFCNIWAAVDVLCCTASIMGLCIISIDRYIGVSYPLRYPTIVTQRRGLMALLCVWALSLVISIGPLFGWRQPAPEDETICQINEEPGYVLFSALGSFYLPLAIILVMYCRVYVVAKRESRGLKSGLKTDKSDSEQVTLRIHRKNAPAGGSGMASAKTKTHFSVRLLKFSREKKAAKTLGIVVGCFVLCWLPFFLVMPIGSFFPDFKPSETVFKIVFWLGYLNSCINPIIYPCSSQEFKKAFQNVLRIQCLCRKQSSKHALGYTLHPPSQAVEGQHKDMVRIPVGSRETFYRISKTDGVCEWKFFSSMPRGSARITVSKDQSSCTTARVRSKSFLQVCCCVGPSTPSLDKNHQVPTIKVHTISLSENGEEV
Experimental: 32 μL of cell suspension (10,000 cells) were added to each well of a 384-well TC-Treated assay plate. Cells in Assay Media were incubated for 16-24 hours in the plate at 37° C./5% CO2 in a humidified incubator. […] 4 μL of Assay Media was added to all wells to bring the final assay volume to 40 μL. The plate was incubated for 5 hours at 37° C./5% CO2 in a humidified incubator. 8 μL of 1 μM Substrate+Loading Solution was added to each well and the plate was incubated for 2 hours at room temperature. The plate was read on a fluorescence plate reader.

[1] = agonist assay, 5 hours incubation, fluorescence read, read-out: α1A Activity, EC50

Sequence of β2 adrenergic receptor (P07550 whole entry): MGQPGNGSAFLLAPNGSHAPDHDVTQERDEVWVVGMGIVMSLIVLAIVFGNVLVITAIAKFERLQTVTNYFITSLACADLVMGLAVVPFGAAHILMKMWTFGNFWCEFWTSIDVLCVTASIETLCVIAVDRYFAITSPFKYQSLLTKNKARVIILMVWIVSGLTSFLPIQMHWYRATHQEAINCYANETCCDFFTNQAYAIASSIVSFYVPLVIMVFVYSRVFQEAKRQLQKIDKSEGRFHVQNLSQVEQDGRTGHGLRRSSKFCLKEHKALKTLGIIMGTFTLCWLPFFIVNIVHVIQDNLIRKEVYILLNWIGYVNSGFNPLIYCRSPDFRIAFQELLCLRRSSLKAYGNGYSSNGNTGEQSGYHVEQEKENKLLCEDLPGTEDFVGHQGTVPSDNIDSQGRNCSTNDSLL

SMILES | EC50 (β2 adrenergic receptor) [nM] | EC50 (α2A adrenergic receptor) [nM] | EC50 (α1A adrenergic receptor) [nM] | EC50 (α1A adrenergic receptor; [1]) [nM] | selectivity of agonism (α1A and/or α2A EC50 less than 1,000 nM and insignificant activity at β2) (α1A adrenergic receptor)
CC(Oc1ccccc1C1CCCC1)C1=NCCN1 (centres unmarked) [Compound III] | > 6300 | 18.7 | < 0.119 | – | –
CC(Oc1ccccc1-c1cccnc1)C1=NCCN1 (centres unmarked) [IV] | > 25000 | > 25000 | – | 13 | selective α1A receptor agonist
CC(Oc1ccccc1/C=N/O)C1=NCCN1 (centres unmarked) [V] | > 63000 | 277 | – | 32.6 | selective α1A and α2A receptor agonist
